Drawing on patent US20250388592A1 (REMYND N.V., priority 2022, published 2025), this text covers EC50 for 55 compounds.

What is called EC50 is the concentration needed to bring the measured effect to its halfway point.

The experiment deals with M17_3TAU(P301L) cells. Put plainly: TAU-induced cytotoxicity (LDH) in the neuroblastoma tauopathy model. It is filed as cell-based. To be noted: Homo sapiens, 168 h, inhibition of TAU-induced toxicity, 7 days retinoic acid differentiation, LDH readout. In outline: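 Stably transfected BE-M17 cells expressing human TAU-P301L, seeded in serum-free detection medium, then differentiated with 2.5 μM RA (added in equal volume) for 7 days at 37° C/5% CO2 to induce TAU aggregation. Cytotoxicity = supernatant LDH increase over total LDH; EC50 from dose-dependent inhibition curves.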
Compound `COc1cc(OC)nc(CN2CC3(C2)CN(C(=O)Cc2ccc(Cl)cc2)C3)n1` [Cpd B036, 2-(4-chlorophenyl)-1-(6-((4,6-dimethoxypyrimidin-2-yl)methyl)-2,6-diazaspiro[3.3]heptan-2-yl)ethanone] displayed a concentration for a half-maximal effect (EC50) of 17.6 nM.

`Cn1ncc(CN2CC3(C2)CN(C(=O)OC2CCC(F)(F)CC2)C3)c1Cl` [Cpd B144] displayed an EC50 of 86.5 nM.

For the compound `Cc1csc(CN2CC3(C2)CN(C(=O)NCc2ccc(F)cc2)C3)c1` [Cpd B192], the EC50 amounted to 141 nM.

`COc1cccc(CC(=O)N2CC3(CN(Cc4ccc(F)cc4)C3)C2)c1` [Cpd B425] gave a half-maximal effective concentration (EC50) of 854 nM.

On to `O=C(NCC1CCC(F)(F)CC1)N1CC2(CN(Cc3ccc(F)cn3)C2)C1` [Cpd B453], for which a half-maximal effect (EC50) was put at 83.6 nM.

As for `O=C(Cc1ccc(Cl)cc1)N1CC2(CN(CCc3ccccc3)C2)C1` [Cpd B052, 2-(4-chlorophenyl)-1-(6-phenethyl-2,6-diazaspiro[3.3]heptan-2-yl)ethanone], the response was half-maximal at 15.9 nM (EC50).

The compound `Clc1ccc(Cc2nsc(NC3CC4(CC(NCc5cccc6c5OCO6)C4)C3)n2)cc1` (stereo not shown) [Cpd B330, N-(benzo[d][1,3]dioxol-4-ylmethyl)-N′-(3-(4-chlorobenzyl)-1,2,4-thiadiazol-5-yl) spiro[3.3]heptane-2,6-diamine] yielded an EC50 of 8 nM.

In the case of `CC(c1cccc(C(F)(F)F)c1)N1CC2(CN(C(=O)Cc3ccc(Cl)cc3)C2)C1` (stereo not shown) [Cpd B037, 2-(4-chlorophenyl)-1-(6-(1-(3-(trifluoromethyl)phenyl)ethyl)-2,6-diazaspiro[3.3]heptan-2-yl)ethanone], the half-maximal effective concentration (EC50) was found to be 5.41 nM.

Consider `Cc1cccnc1CN1CC2(C1)CN(C(=O)Oc1ccc(Cl)cc1)C2` [Cpd B141], for which the midpoint of the response, the EC50, lay at 2.57 nM.

For the compound `COc1ccc(CCNC2CC3(C2)CC(Nc2nc(Cc4ccc(Cl)cc4)ns2)C3)cc1OC` (stereo not shown) [Cpd B335, N-(3-(4-chlorobenzyl)-1,2,4-thiadiazol-5-yl)-N′-(3,4-dimethoxyphenethyl) spiro[3.3]heptane-2,6-diamine], the midpoint of the response, the EC50, lay at 3 nM. The EC50 values of the last two compounds are within 1.5-fold of each other.

`O=C(NC1CCC(F)(F)CC1)N1CC2(CN(Cc3ncccc3C(F)(F)F)C2)C1` [Cpd B206] had an EC50 of 31 nM.

With `O=C(NC1CCC(F)(F)CC1)N1CC2(CN(Cc3ccc(Cl)cn3)C2)C1` [Cpd B457], the EC50 was 71.5 nM. Against the preceding compound, the EC50 is about 2.3-fold higher.

Turning to `COc1cccc(CN2CC3(CN(Cc4ccc(Cl)cc4)C3)C2)c1` [Cpd B225, 2-(4-chlorobenzyl)-6-(3-methoxybenzyl)-2,6-diazaspiro[3.3]heptane], the EC50 amounted to 5.27 nM.

In turn, `COc1cccc(CN2CC3(C2)CN(C(=O)Cc2ccccn2)C3)c1` [Cpd B419] returned an EC50 of 1260 nM.

With `O=C(NCC1CCC(F)(F)CC1)N1CC2(CN(Cc3ccc(F)cc3C(F)(F)F)C2)C1` [Cpd B201], the concentration giving a half-maximal response (EC50) turned out to be 3.55 nM.

On to `COc1ccccc1CCNC1CC2(C1)CC(Nc1nc(Cc3ccc(Cl)cc3)ns1)C2` (stereo not shown) [Cpd B328, N-(3-(4-chlorobenzyl)-1,2,4-thiadiazol-5-yl)-N′-(2-methoxyphenethyl) spiro[3.3]heptane-2,6-diamine], for which the EC50 was 2 nM.

`O=C(NC1CC(F)(F)C1)N1CC2(CN(Cc3ccc(F)cc3)C2)C1` [Cpd B168]: it took 780 nM to reach a half-maximal effect (EC50). Compared with the last compound, the EC50 is about 390-fold higher.

In the case of `Cc1nc(CN2CC3(C2)CN(C(=O)CC2CCC(F)(F)CC2)C3)c[nH]1` [Cpd B125], a half-maximal response (EC50) required 705 nM.

For the compound `CCOc1ccccc1CNC1CC2(C1)CC(Nc1nc(Cc3ccc(Cl)cc3)ns1)C2` (stereo not shown) [Cpd B315, N-(3-(4-chlorobenzyl)-1,2,4-thiadiazol-5-yl)-N′-(2-ethoxybenzyl) spiro[3.3]heptane-2,6-diamine], a half-maximal effect (EC50) was put at 4 nM.

On to `O=C(Cc1cccc(C(F)(F)F)c1)N1CC2(CN(Cc3ccc(F)cc3)C2)C1` [Cpd B091], for which a half-maximal effect (EC50) was put at 4.56 nM.

Regarding `COc1cccc(CN2CC3(C2)CN(C(=O)Cc2ccc(Cl)cc2)C3)c1` [Cpd B031, 2-(4-chlorophenyl)-1-(6-(3-methoxybenzyl)-2,6-diazaspiro[3.3]heptan-2-yl)ethanone], a half-maximal effect (EC50) was put at 2.01 nM. This EC50 lies about 2.3-fold lower than the previous one.

Consider `Cn1cnc(CN2CC3(C2)CN(C(=O)OC2CCC(F)(F)CC2)C3)c1Cl` [Cpd B446], for which the EC50 was determined as 150 nM.

With `CCn1ccc(CN2CC3(C2)CN(C(=O)CC2CCC(F)(F)CC2)C3)n1` [Cpd B118], the EC50 came to 27.8 nM.

Turning to `Cn1cc(Cl)c(CN2CC3(C2)CN(C(=O)CC2CCC(F)(F)CC2)C3)n1` [Cpd B120], the EC50 was determined as 4.27 nM.

Compound `O=C(OCC1CCC(F)(F)CC1)N1CC2(CN(Cc3ccc(F)cc3)C2)C1` [Cpd B132] came in with an EC50 of 3.16 nM.

Turning to `O=S(=O)(Cc1cccc(Cl)c1)N1CC2(CN(Cc3ccc(F)cc3)C2)C1` [Cpd B218], the EC50 worked out at 16.8 nM.

As for `O=C(Nc1cccc(Cl)c1)N1CC2(CN(Cc3ccc(F)cc3)C2)C1` [Cpd B466], the concentration for a half-maximal effect (EC50) came to 18.6 nM.

The compound `Cc1ccc(CNC2CC3(C2)CC(Nc2nc(Cc4ccc(Cl)cc4)ns2)C3)cc1` (stereo not shown) [Cpd B321, N-(3-(4-chlorobenzyl)-1,2,4-thiadiazol-5-yl)-N′-(4-methylbenzyl) spiro[3.3]heptane-2,6-diamine] yielded a concentration for a half-maximal effect (EC50) of 8.6 nM.

For `O=C(Cc1ccc(F)cc1)N1CC2(CN(CCc3cccc(C(F)(F)F)c3)C2)C1` [Cpd B023, 2-(4-Fluoro-phenyl)-1-{6-[2-(3-trifluoromethyl-phenyl)-ethyl]-2,6-diaza-spiro[3.3]hept-2-yl}-ethanone], the EC50 amounted to 18.6 nM. This EC50 is about 2.2-fold higher than that of the compound before.

Consider `O=C(Cc1ccc(Cl)cc1)N1CC2(CN(Cc3ccccc3)C2)C1` [Cpd B003, 1-(6-benzyl-2,6-diazaspiro[3.3]heptan-2-yl)-2-(4-chlorophenyl)ethanone], for which the EC50 stood at 6.97 nM.

Compound `O=C(NCC1CCC(F)(F)CC1)N1CC2(CN(Cc3c(F)cccc3C(F)(F)F)C2)C1` [Cpd B459] showed a concentration for a half-maximal effect (EC50) of 64.8 nM.

`O=C(Cc1ccc(F)cc1)N1CC2(CN(CCc3ccc(F)cc3)C2)C1` [Cpd B027, 2-(4-Fluoro-phenyl)-1-{6-[2-(4-fluoro-phenyl)-ethyl]-2,6-diaza-spiro[3.3]hept-2-yl}-ethanone] displayed a concentration giving a half-maximal response (EC50) of 21.7 nM.

Consider `O=C(COc1ccc(F)cc1)N1CC2(CN(Cc3ccc(F)cc3)C2)C1` [Cpd B098], for which the EC50 was found to be 71.5 nM.

`COc1cccc(CN2CC3(C2)CN(C(=O)NCC2CCCCC2)C3)c1` [Cpd B184] had a half-maximal effective concentration (EC50) of 5.12 nM. This EC50 is about 14-fold lower than that of the compound before.

As for `Cc1cccnc1CN1CC2(C1)CN(C(=O)CC1CCCCC1)C2` [Cpd B082], a half-maximal response (EC50) required 27.9 nM.

In turn, `Fc1cccc(CNC2CC3(C2)CC(Nc2nc(Cc4ccc(Cl)cc4)ns2)C3)c1` (stereo not shown) [Cpd B323, N-(3-(4-chlorobenzyl)-1,2,4-thiadiazol-5-yl)-N′-(3-fluorobenzyl)spiro[3.3]heptane-2,6-diamine] came in with a 50% effective concentration (EC50) of 2 nM.

For the compound `Cn1cc(CN2CC3(C2)CN(C(=O)CC2CCC(F)(F)CC2)C3)cn1` [Cpd B119], the midpoint of the response, the EC50, lay at 46 nM.

In the case of `O=C(CC1CCC(F)(F)CC1)N1CC2(CN(Cc3ccc(F)cc3Cl)C2)C1` [Cpd B107], the EC50 was under 0.19 nM.

`Cc1ccc(CCN2CC3(C2)CN(C(=O)Cc2ccc(F)cc2)C3)cc1` [Cpd B026, 2-(4-Fluoro-phenyl)-1-[6-(2-p-tolyl-ethyl)-2,6-diaza-spiro[3.3]hept-2-yl]-ethanone] yielded an EC50 of 26.1 nM.

`Cc1csc(CN2CC3(C2)CN(C(=O)NC2CCC(F)(F)CC2)C3)c1` [Cpd B210] showed a 50% effective concentration (EC50) of 14.6 nM.

Consider `O=C(OCC1CCOCC1)N1CC2(CN(Cc3ccc(F)cc3)C2)C1` [Cpd B128, (tetrahydro-2H-pyran-4-yl)methyl 6-(4-fluorobenzyl)-2,6-diazaspiro[3.3]heptane-2-carboxylate], for which the midpoint of the response, the EC50, lay at 126 nM. This EC50 lies about 8.6-fold higher than the previous one.

`O=C(Cc1ccc(Cl)cc1)N1CC2(CN(Cc3ccccc3OC(F)(F)F)C2)C1` [Cpd B034, 2-(4-chlorophenyl)-1-(6-(2-(trifluoromethoxy)benzyl)-2,6-diazaspiro[3.3]heptan-2-yl)ethanone] came in with an EC50 of 6.04 nM.

As for `O=C(NCC1CCC(F)(F)CC1)N1CC2(CN(Cc3ccc(F)cc3)C2)C1` [Cpd B167, N-((4,4-difluorocyclohexyl)methyl)-6-(4-fluorobenzyl)-2,6-diazaspiro[3.3]heptane-2-carboxamide], a half-maximal response (EC50) required 4.17 nM.

`Cc1nc(CN2CC3(C2)CN(C(=O)OCC24CC(F)(C2)C4)C3)cs1` [Cpd B136] yielded an EC50 of 671 nM. This EC50 is about 160-fold higher than that of the compound before.

The compound `Cc1ccccc1CC(=O)N1CC2(CN(Cc3ccccc3C)C2)C1` [Cpd B434] registered an EC50 of 396 nM. Against the preceding compound, the EC50 is about 1.7-fold lower.

Compound `COc1cccc(CN2CC3(C2)CN(C(=O)CC2CCCCC2)C3)c1` [Cpd B073] returned an EC50 of 5 nM.

Compound `COc1ncccc1CN1CC2(C1)CN(C(=O)NCc1ccc(F)cc1)C2` [Cpd B431] showed an EC50 of 492 nM.

Compound `O=C(Nc1ccc(OC(F)F)cc1)N1CC2(CN(Cc3ccc(F)cc3)C2)C1` [Cpd B465] yielded a concentration giving a half-maximal response (EC50) of 38.1 nM.

On to `Cc1cnc(CN2CC3(C2)CN(C(=O)CC2CCC(F)(F)CC2)C3)s1` [Cpd B116], for which it took 72.2 nM to reach a half-maximal effect (EC50).

For `O=C(NCC1CCC(F)(F)CC1)N1CC2(CN(Cc3ncccc3F)C2)C1` [Cpd B199], a half-maximal effect (EC50) was put at 53.9 nM.

In the case of `COc1cccc(CNC2CC3(C2)CC(Nc2nc(Cc4ccc(Cl)cc4)ns2)C3)c1` (stereo not shown) [Cpd B310, N-(3-(4-chlorobenzyl)-1,2,4-thiadiazol-5-yl)-N′-(3-methoxybenzyl) spiro[3.3]heptane-2,6-diamine], the EC50 stood at 4.6 nM.

Turning to `Cc1cccnc1CN1CC2(C1)CN(C(=O)C(C)(C)Oc1ccc(Cl)cc1)C2` [Cpd B085], the midpoint of the response, the EC50, lay at 3760 nM.

For the compound `COc1ccc(CNC2CC3(C2)CC(Nc2nc(Cc4ccc(Cl)cc4)ns2)C3)c(OC)c1` (stereo not shown) [Cpd B316, N-(3-(4-chlorobenzyl)-1,2,4-thiadiazol-5-yl)-N′-(2,4-dimethoxybenzyl) spiro[3.3]heptane-2,6-diamine], the EC50 was determined as 3.1 nM.

In turn, `Cc1csc(CN2CC3(C2)CN(C(=O)OC2CCC(F)(F)CC2)C3)c1` [Cpd B146] came in with an EC50 of under 0.19 nM.

`FC(F)(F)c1ccc(CNC2CC3(C2)CC(Nc2nc(Cc4ccc(Cl)cc4)ns2)C3)cc1` (stereo not shown) [Cpd B304, N-(3-(4-chlorobenzyl)-1,2,4-thiadiazol-5-yl)-N′-(4-(trifluoromethyl)benzyl) spiro[3.3]heptane-2,6-diamine] yielded an EC50 of 31.5 nM.
